From patent publication US20250171457A1, “NITROGEN-CONTAINING HETEROCYCLIC COMPOUND HAVING NRF2 ACTIVATION EFFECT” (CHUGAI SEIYAKU KABUSHIKI KAISHA, priority 2022, published 2025) come the findings set out here.

As usually defined, the EC50 is the concentration giving half of the maximal effect.

In this test the test system is Nrf2 transcriptional activity (pARE-Luc reporter) in HepG2 cells. Briefly: In vitro Nrf2 transcriptional activity measurement by ARE-dependent reporter assay in HepG2 cell. It is filed as cell-based, human. The following applies: Homo sapiens; HepG2 cells transfected with pARE-Luc, 4 hours at 37° C.; luciferase activity of Example 1-54 or Example 17-23 at 3.75 μM defined as 100%. As to the method: Test Example 1: In Vitro Nrf2 Transcriptional Activity Measurement by ARE-Dependent Reporter Assay in HepG2 Cell
A human liver cancer-derived cell line HepG2 was transfected with pGL4.37 vector (pARE-Luc, Promega Corp.) and incubated overnight at 37° C. in a humidified atmosphere containing 5% CO2. The cells were dissociated by trypsin treatment, inoculated to a 384-well plate supplemented with a test compound, and incubated at 37° C. for 4 hours. Then, Bright-Glo Reagent (Promega Corp.) was added to the plate, and luciferase activity was measured with Envision plate reader.
Luciferase activity obtained through the action of the compound of Example 1-54 or Example 17-23 at a concentration of 3.75 μM was defined as 100%. The luciferase activity of each well was converted to a response rate (%). The dose-response curve of the compound of each Example was prepared to calculate a 50% effective concentration (EC50).
`CO[C@@H]1CC2(CN(c3cc(Cl)c(C(=O)N4COc5c(cccc5-c5cc(N6C7CCC6COC7)c(C(=O)O)cc5F)C4)c(Cl)c3)C2)[C@H]1C` (racemic) [Compound 1-86, 4-[3-[2,6-Dichloro-4-[rac-(6R,7R)-6-methoxy-7-methyl-2-azaspiro[3.3]heptan-2-yl]benzoyl]-2,4-dihydro-1,3-benzoxazin-8-yl]-5-fluoro-2-(3-oxa-8-azabicyclo[3.2.1]octan-8-yl)benzoic acid] showed a 50% effective concentration (EC50) of 1.1 nM. `CO[C@H]1CC2(CN(c3cc(Cl)c(C(=O)N4COc5c(cccc5-c5cc(N6C7CCC6COC7)c(C(=O)O)cc5F)C4)c(Cl)c3)C2)[C@H]1C` (racemic) [Compound 1-87, 4-[3-[2,6-Dichloro-4-[rac-(6R,7S)-6-methoxy-7-methyl-2-azaspiro[3.3]heptan-2-yl]benzoyl]-2,4-dihydro-1,3-benzoxazin-8-yl]-5-fluoro-2-(3-oxa-8-azabicyclo[3.2.1]octan-8-yl)benzoic acid] came in with an EC50 of 1 nM. The value for `CO[C@H]1C[C@H]2CC[C@@H](C1)N2c1cc(Cl)c(C(=O)N2COc3c(cccc3-c3cc(N4C5CCC4COC5)c(C(=O)O)cc3F)C2)c(Cl)c1` (racemic) [Compound 6-11, 4-[3-[2,6-Dichloro-4-[rac-(1R,3r,5S)-3-methoxy-8-azabicyclo[3.2.1]octan-8-yl]benzoyl]-2,4-dihydro-1,3-benzoxazin-8-yl]-5-fluoro-2-(3-oxa-8-azabicyclo[3.2.1]octan-8-yl)benzoic acid] was 1.5 nM; that for `CO[C@H]1C[C@H]2CN(c3cc(Cl)c(C(=O)N4COc5c(cccc5-c5cc(N6C7CCC6COC7)c(C(=O)O)cc5F)C4)c(Cl)c3)C[C@H]21` (racemic) [Compound 6-12, 4-[3-[2,6-Dichloro-4-[rac-(1R,5S,6S)-6-methoxy-3-azabicyclo[3.2.0]heptan-3-yl]benzoyl]-2,4-dihydro-1,3-benzoxazin-8-yl]-5-fluoro-2-(3-oxa-8-azabicyclo[3.2.1]octan-8-yl)benzoic acid] was 3.9 nM; that for `COC1CCC12CN(c1cc(Cl)c(C(=O)N3COc4c(cccc4-c4cc(N5C6CCC5COC6)c(C(=O)O)cc4F)C3)c(Cl)c1)C2` (racemic) [Compound 6-13, 4-[3-[2,6-Dichloro-4-(rac-7-methoxy-2-azaspiro[3.3]heptan-2-yl)benzoyl]-2,4-dihydro-1,3-benzoxazin-8-yl]-5-fluoro-2-(3-oxa-8-azabicyclo[3.2.1]octan-8-yl)benzoic acid] was 3.8 nM.

Compound `COCCN1CCN(c2cc(Cl)c(C(=O)N3COc4c(cccc4-c4cc(N5CCOCC5C#N)c(C(=O)O)cc4F)C3)c(Cl)c2)CC1` (racemic) [Compound 20-10, rac-2-(3-Cyanomorpholin-4-yl)-4-[3-[2,6-dichloro-4-[4-(2-methoxyethyl)piperazin-1-yl]benzoyl]-2,4-dihydro-1,3-benzoxazin-8-yl]-5-fluorobenzoic acid] came in with a concentration giving a half-maximal response (EC50) of 25 nM.

Compound `O=C(O)c1cc(F)c(-c2cccc3c2OCN(C(=O)c2c(Cl)cc(OC4CCOC4)cc2Cl)C3)cc1N1C2CCC1COC2` (stereo in doubt) [Compound 4-36, 4-[3-[2,6-Dichloro-4-[(3R)-oxolan-3-yl]oxybenzoyl]-2,4-dihydro-1,3-benzoxazin-8-yl]-5-fluoro-2-(3-oxa-8-azabicyclo[3.2.1]octan-8-yl)benzoic acid] displayed an EC50 of 8.7 nM. `O=C(O)c1cc(F)c(-c2cccc3c2OCN(C(=O)c2c(Cl)cc(N4CC5(CCCO5)C4)cc2Cl)C3)cc1N1C2CCC1COC2` [Compound 1-1, 4-[3-[2,6-Dichloro-4-(5-oxa-2-azaspiro[3.4]octan-2-yl)benzoyl]-2,4-dihydro-1,3-benzoxazin-8-yl]-5-fluoro-2-(3-oxa-8-azabicyclo[3.2.1]octan-8-yl)benzoic acid] displayed an EC50 of 2.8 nM. Turning to `O=C(O)c1cc(F)c(-c2cccc3c2OCN(C(=O)c2c(Cl)cc(N4CC5(CCO5)C4)cc2Cl)C3)cc1N1C2CCC1COC2` [Compound 1-2, 4-[3-[2,6-Dichloro-4-(1-oxa-6-azaspiro[3.3]heptan-6-yl)benzoyl]-2,4-dihydro-1,3-benzoxazin-8-yl]-5-fluoro-2-(3-oxa-8-azabicyclo[3.2.1]octan-8-yl)benzoic acid], a half-maximal response (EC50) required 8.6 nM. In turn, `O=C(O)c1cc(F)c(-c2cccc3c2OCN(C(=O)c2c(Cl)cc(N4CC5(CCOC5)C4)cc2Cl)C3)cc1N1C2CCC1COC2` [Compound 1-3, 4-[3-[2,6-Dichloro-4-(6-oxa-2-azaspiro[3.4]octan-2-yl)benzoyl]-2,4-dihydro-1,3-benzoxazin-8-yl]-5-fluoro-2-(3-oxa-8-azabicyclo[3.2.1]octan-8-yl)benzoic acid] showed an EC50 of 5.8 nM. In turn, `O=C(O)c1cc(F)c(-c2cccc3c2OCN(C(=O)c2c(Cl)cc(N4C5COCC4C5)cc2Cl)C3)cc1N1C2CCC1COC2` [Compound 1-5, 4-[3-[2,6-Dichloro-4-(3-oxa-6-azabicyclo[3.1.1]heptan-6-yl)benzoyl]-2,4-dihydro-1,3-benzoxazin-8-yl]-5-fluoro-2-(3-oxa-8-azabicyclo[3.2.1]octan-8-yl)benzoic acid] yielded an EC50 of 3.1 nM. For the compound `O=C(O)c1cc(F)c(-c2cccc3c2OCN(C(=O)c2c(Cl)cc(N4CC5(CC(O)C5)C4)cc2Cl)C3)cc1N1C2CCC1COC2` [Compound 1-6, 4-[3-[2,6-Dichloro-4-(6-hydroxy-2-azaspiro[3.3]heptan-2-yl)benzoyl]-2,4-dihydro-1,3-benzoxazin-8-yl]-5-fluoro-2-(3-oxa-8-azabicyclo[3.2.1]octan-8-yl)benzoic acid], the concentration giving a half-maximal response (EC50) turned out to be 9.6 nM. In turn, `O=C(O)c1cc(F)c(-c2cccc3c2OCN(C(=O)c2c(Cl)cc(N4CC5(C4)CC5(F)F)cc2Cl)C3)cc1N1C2CCC1COC2` [Compound 1-7, 4-[3-[2,6-Dichloro-4-(2,2-difluoro-5-azaspiro[2.3]hexan-5-yl)benzoyl]-2,4-dihydro-1,3-benzoxazin-8-yl]-5-fluoro-2-(3-oxa-8-azabicyclo[3.2.1]octan-8-yl)benzoic acid] showed an EC50 of 2 nM. The value for `COC1(C(F)F)CN(c2cc(Cl)c(C(=O)N3COc4c(cccc4-c4cc(N5C6CCC5COC6)c(C(=O)O)cc4F)C3)c(Cl)c2)C1` [Compound 1-8, 4-[3-[2,6-Dichloro-4-[3-(difluoromethyl)-3-methoxyazetidin-1-yl]benzoyl]-2,4-dihydro-1,3-benzoxazin-8-yl]-5-fluoro-2-(3-oxa-8-azabicyclo[3.2.1]octan-8-yl)benzoic acid] was 2.2 nM. Consider `COC1CN(c2cc(Cl)c(C(=O)N3COc4c(cccc4-c4cc(N5C6CCC5COC6)c(C(=O)O)cc4F)C3)c(Cl)c2)C1(C)C` (stereo not drawn) [Compound 1-9, 4-[3-[2,6-Dichloro-4-(3-methoxy-2,2-dimethylazetidin-1-yl)benzoyl]-2,4-dihydro-1,3-benzoxazin-8-yl]-5-fluoro-2-(3-oxa-8-azabicyclo[3.2.1]octan-8-yl)benzoic acid], for which the EC50 worked out at 4.6 nM. `O=C(O)c1cc(F)c(-c2cccc3c2OCN(C(=O)c2c(Cl)cc(N4CC(OC(F)F)C4)cc2Cl)C3)cc1N1C2CCC1COC2` [Compound 1-10, 4-[3-[2,6-Dichloro-4-[3-(difluoromethoxy)azetidin-1-yl]benzoyl]-2,4-dihydro-1,3-benzoxazin-8-yl]-5-fluoro-2-(3-oxa-8-azabicyclo[3.2.1]octan-8-yl)benzoic acid] came in with an EC50 of 3.1 nM.

`CC1(F)CN(c2cc(Cl)c(C(=O)N3COc4c(cccc4-c4cc(N5C6CCC5COC6)c(C(=O)O)cc4F)C3)c(Cl)c2)C1` [Compound 1-11, 4-[3-[2,6-Dichloro-4-(3-fluoro-3-methylazetidin-1-yl)benzoyl]-2,4-dihydro-1,3-benzoxazin-8-yl]-5-fluoro-2-(3-oxa-8-azabicyclo[3.2.1]octan-8-yl)benzoic acid] displayed an EC50 of 2.1 nM. The compound `O=C(O)c1cc(F)c(-c2cccc3c2OCN(C(=O)c2c(Cl)cc(N4CC(O)(C(F)(F)F)C4)cc2Cl)C3)cc1N1C2CCC1COC2` [Compound 1-12, 4-[3-[2,6-Dichloro-4-[3-hydroxy-3-(trifluoromethyl)azetidin-1-yl]benzoyl]-2,4-dihydro-1,3-benzoxazin-8-yl]-5-fluoro-2-(3-oxa-8-azabicyclo[3.2.1]octan-8-yl)benzoic acid] returned an EC50 of 16 nM. Compound `O=C(O)c1cc(F)c(-c2cccc3c2OCN(C(=O)c2c(Cl)cc(N4CC5(CC5)C4)cc2Cl)C3)cc1N1C2CCC1COC2` [Compound 1-13, 4-[3-[4-(5-Azaspiro[2.3]hexan-5-yl)-2,6-dichlorobenzoyl]-2,4-dihydro-1,3-benzoxazin-8-yl]-5-fluoro-2-(3-oxa-8-azabicyclo[3.2.1]octan-8-yl)benzoic acid] gave an EC50 of 2.4 nM.

Consider `O=C(O)c1cc(F)c(-c2cccc3c2OCN(C(=O)c2c(Cl)cc(N4CC(OC(F)(F)F)C4)cc2Cl)C3)cc1N1C2CCC1COC2` [Compound 1-14, 4-[3-[2,6-Dichloro-4-[3-(trifluoromethoxy)azetidin-1-yl]benzoyl]-2,4-dihydro-1,3-benzoxazin-8-yl]-5-fluoro-2-(3-oxa-8-azabicyclo[3.2.1]octan-8-yl)benzoic acid], for which it took 4.4 nM to reach a half-maximal effect (EC50). Regarding `CC1(C#N)CN(c2cc(Cl)c(C(=O)N3COc4c(cccc4-c4cc(N5C6CCC5COC6)c(C(=O)O)cc4F)C3)c(Cl)c2)C1` [Compound 1-15, 4-[3-[2,6-Dichloro-4-(3-cyano-3-methylazetidin-1-yl)benzoyl]-2,4-dihydro-1,3-benzoxazin-8-yl]-5-fluoro-2-(3-oxa-8-azabicyclo[3.2.1]octan-8-yl)benzoic acid], the response was half-maximal at 2.7 nM (EC50).
